Data: PubChem BioAssay (NCI)
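Compound exposure: 48 hours, 5 concentrations, 96-well plates. Here, GI50 denotes the concentration required for 50% inhibition of growth. TGI marks complete inhibition of growth.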

How the values were obtained:
Experiment in all cases: NCI-60 cell line screen, 48 h
SK-MEL-28 melanoma = tested on: SK-MEL-28 melanoma
HCT-116 colon = tested on: HCT-116 colon
SNB-75 CNS = tested on: SNB-75 CNS
HOP-92 NSCLC = tested on: HOP-92 NSCLC
COLO 205 colon = tested on: COLO 205 colon
TK-10 renal = tested on: TK-10 renal
MCF7 breast = tested on: MCF7 breast
NCI-H522 lung = tested on: NCI-H522 lung
UACC-62 melanoma = tested on: UACC-62 melanoma
HCC-2998 colon = tested on: HCC-2998 colon

Compound	GI50 (SK-MEL-28 melanoma)	TGI (SK-MEL-28 melanoma)	GI50 (HCT-116 colon)	TGI (HCT-116 colon)	GI50 (SNB-75 CNS)	TGI (SNB-75 CNS)	GI50 (HOP-92 NSCLC)	TGI (HOP-92 NSCLC)	GI50 (COLO 205 colon)	TGI (COLO 205 colon)	GI50 (TK-10 renal)	TGI (TK-10 renal)	GI50 (MCF7 breast)	TGI (MCF7 breast)	GI50 (NCI-H522 lung)	TGI (NCI-H522 lung)	GI50 (UACC-62 melanoma)	TGI (UACC-62 melanoma)	GI50 (HCC-2998 colon)	TGI (HCC-2998 colon)
COc1ccc(OC)c(NC(=O)c2cccc(NC3=C(Cl)C(=O)N(Cc4ccccc4)C3=O)c2)c1	> 100 µM	> 100 µM	> 86.2 µM	> 100 µM	> 100 µM	> 100 µM	> 100 µM	> 100 µM	> 100 µM	> 100 µM	> 59.5 µM	> 100 µM	> 48.2 µM	> 100 µM	> 100 µM	> 100 µM	> 63.1 µM	> 100 µM	70.4 µM	> 100 µM
Cc1c(N)nc([C@H](CC(N)=O)NC[C@H](N)C(N)=O)nc1C(=O)N[C@H](C(=O)N[C@H](C)[C@@H](O)CC(=O)N[C@H](C(=O)NC(O[C@@H]1O[C@@H](C)[C@@H](N)[C@@H](O)[C@H]1O)C(O)c1nc(-c2nc(C(=O)NCCCCN)cs2)cs1)[C@@H](C)O)[C@@H](O[C@@H]1O[C@@H](CO)[C@@H](O)[C@H](O)[C@@H]1O[C@H]1O[C@H](CO)[C@@H](O)[C@H](OC(N)=O)[C@@H]1O)c1c[nH]cn1 (stereo partly specified)		> 50 µM		> 50 µM		> 50 µM		> 50 µM		> 50 µM		> 50 µM		> 50 µM		> 50 µM		> 50 µM		> 50 µM
CC(CN1CC(=O)NC(=O)C1)N1CC(=O)NC(=O)C1 (stereo unspecified)		> 750 µM		> 750 µM		> 715 µM		732 µM	25.3 µM	443 µM		> 702 µM		> 750 µM		> 724 µM		> 686 µM		> 750 µM
c1cc(CN2CCCNCCNCCCNCC2)ccc1CN1CCCNCCNCCCNCC1	> 100 µM	> 100 µM	> 100 µM	> 100 µM	> 100 µM	> 100 µM	> 100 µM	> 100 µM	> 100 µM	> 100 µM	> 100 µM	> 100 µM	> 100 µM	> 100 µM	> 100 µM	> 100 µM	> 100 µM	> 100 µM	> 100 µM	> 100 µM
Nc1ncnc2c1c(-c1ccc(Oc3ccccc3)cc1)nn2C[C@H]1SSC[C@@H]1O	0.147 µM	0.403 µM	0.332 µM	12.3 µM	3.02 µM	14.8 µM	1.62 µM	7.15 µM	2.06 µM	9.82 µM	0.585 µM	2.54 µM	0.289 µM	4.37 µM	3.85 µM	14 µM	0.276 µM	0.939 µM	3.3 µM	27.6 µM
